In PubChem BioAssay AID1963975 (Molecular Pharmacology Branch, DTP, NCI, 2024):
pIC50: −log10 of the molar value.

Tested on: 624824-186-R-J2-PDC multicell spheroids, viability
Experiment: Anticancer human tumor 624824-186-R-J2-PDC patient-derived colon adenocarcinoma cell line growth inhibition [PI3K]
Conditions: for pIC50: curve of first compound; for viability, T/C: stronger effect = lower value
In short: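 Stroma-containing spheroids: tumor line, pooled-donor HUVEC, hMSC. Treatments: targeted agents with PI3K inhibitors. Dosing: clinically relevant, half-log spacing, 10 microM ceiling without known Cmax. Read-out: cell viability.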

[1] = second compound 0.0316 µM, first compound 0.0316 µM
[2] = second compound 0.0316 µM, first compound 0.1 µM
[3] = second compound 0.0316 µM, first compound 0.316 µM
[4] = second compound 0.0316 µM, first compound 1 µM
[5] = second compound 0.0316 µM, first compound 3.16 µM
[6] = second compound 0.0316 µM, first compound 10 µM
[7] = second compound 0.1 µM, first compound 0.0316 µM
[8] = second compound 0.1 µM, first compound 0.1 µM
[9] = second compound 0.1 µM, first compound 0.316 µM
[10] = second compound 0.1 µM, first compound 1 µM
[11] = second compound 0.1 µM, first compound 3.16 µM
[12] = second compound 0.1 µM, first compound 10 µM
[13] = second compound 0.316 µM, first compound 0.0316 µM
[14] = second compound 0.316 µM, first compound 0.1 µM
[15] = second compound 0.316 µM, first compound 0.316 µM
[16] = second compound 0.316 µM, first compound 1 µM
[17] = second compound 0.316 µM, first compound 3.16 µM
[18] = second compound 0.316 µM, first compound 10 µM
[19] = second compound 1 µM, first compound 0.0316 µM
[20] = second compound 1 µM, first compound 0.1 µM
[21] = second compound 1 µM, first compound 0.316 µM
[22] = second compound 1 µM, first compound 1 µM
[23] = second compound 1 µM, first compound 3.16 µM
[24] = second compound 1 µM, first compound 10 µM
[25] = second compound 3.16 µM, first compound 0.0316 µM
[26] = second compound 3.16 µM, first compound 0.1 µM
[27] = second compound 3.16 µM, first compound 0.316 µM
[28] = second compound 3.16 µM, first compound 1 µM
[29] = second compound 3.16 µM, first compound 3.16 µM
[30] = second compound 3.16 µM, first compound 10 µM
[31] = second compound 10 µM, first compound 0.0316 µM
[32] = second compound 10 µM, first compound 0.1 µM
[33] = second compound 10 µM, first compound 0.316 µM
[34] = second compound 10 µM, first compound 1 µM
[35] = second compound 10 µM, first compound 3.16 µM
[36] = second compound 10 µM, first compound 10 µM
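Also: spheroids exposed to agents for 7 days before viability read.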
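For viability, T/C in this document: 100% = DMSO vehicle treated spheroids.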

Compound: C#Cc1c(F)ccc2cc(O)cc(-c3ncc4c(N5CC6CCC(C5)N6)nc(OCC56CCCN5CC(F)C6)nc4c3F)c12 (stereo not drawn) + CC(Nc1ncnc2nc[nH]c12)c1cc2cccc(Cl)c2c(=O)n1-c1ccccc1
- pIC50 (second compound 0.0316 µM): < 5.00
- pIC50 (second compound 0.1 µM): < 5.00
- pIC50 (second compound 0.316 µM): < 5.00
- pIC50 (second compound 1 µM): < 5.00
- pIC50 (second compound 3.16 µM): < 5.00
- pIC50 (second compound 10 µM): < 5.00
- viability, T/C [1]: 81.5%
- viability, T/C [2]: 80%
- viability, T/C [3]: 106%
- viability, T/C [4]: 73.1%
- viability, T/C [5]: 93.2%
- viability, T/C [6]: 59.5%
- viability, T/C [7]: 83.8%
- viability, T/C [8]: 78.7%
- viability, T/C [9]: 76%
- viability, T/C [10]: 74.1%
- viability, T/C [11]: 77.9%
- viability, T/C [12]: 67.7%
- viability, T/C [13]: 78.9%
- viability, T/C [14]: 93.6%
- viability, T/C [15]: 93.8%
- viability, T/C [16]: 82.5%
- viability, T/C [17]: 64.5%
- viability, T/C [18]: 71.9%
- viability, T/C [19]: 73%
- viability, T/C [20]: 72.8%
- viability, T/C [21]: 81%
- viability, T/C [22]: 76.6%
- viability, T/C [23]: 86.3%
- viability, T/C [24]: 75.5%
- viability, T/C [25]: 78.8%
- viability, T/C [26]: 97.9%
- viability, T/C [27]: 74.7%
- viability, T/C [28]: 84.3%
- viability, T/C [29]: 94.6%
- viability, T/C [30]: 70.2%
- viability, T/C [31]: 87.4%
- viability, T/C [32]: 83.2%
- viability, T/C [33]: 91.4%
- viability, T/C [34]: 102%
- viability, T/C [35]: 98%
- viability, T/C [36]: 89.4%

Compound: C=CC(=O)N1CCN(c2nc(=O)n(-c3c(C)ccnc3C(C)C)c3nc(-c4c(O)cccc4F)c(F)cc23)C(C)C1 (stereo not drawn) + CC(Nc1ncnc2nc[nH]c12)c1cc2cccc(Cl)c2c(=O)n1-c1ccccc1
- pIC50 (second compound 0.0316 µM): < 5.00
- pIC50 (second compound 0.1 µM): < 5.00
- pIC50 (second compound 0.316 µM): < 5.00
- pIC50 (second compound 1 µM): < 5.00
- pIC50 (second compound 3.16 µM): < 5.00
- pIC50 (second compound 10 µM): < 5.00
- viability, T/C [1]: 77.6%
- viability, T/C [2]: 82.8%
- viability, T/C [3]: 100%
- viability, T/C [4]: 85.2%
- viability, T/C [5]: 75.2%
- viability, T/C [6]: 77.9%
- viability, T/C [7]: 95.2%
- viability, T/C [8]: 77.9%
- viability, T/C [9]: 82%
- viability, T/C [10]: 93.6%
- viability, T/C [11]: 78.1%
- viability, T/C [12]: 90.2%
- viability, T/C [13]: 104%
- viability, T/C [14]: 94.2%
- viability, T/C [15]: 79.4%
- viability, T/C [16]: 88.7%
- viability, T/C [17]: 83.8%
- viability, T/C [18]: 72.8%
- viability, T/C [19]: 106%
- viability, T/C [20]: 80.7%
- viability, T/C [21]: 84.8%
- viability, T/C [22]: 84.4%
- viability, T/C [23]: 77.3%
- viability, T/C [24]: 70.6%
- viability, T/C [25]: 97.6%
- viability, T/C [26]: 96.6%
- viability, T/C [27]: 77.5%
- viability, T/C [28]: 90.4%
- viability, T/C [29]: 85.5%
- viability, T/C [30]: 81%
- viability, T/C [31]: 116%
- viability, T/C [32]: 98.7%
- viability, T/C [33]: 109%
- viability, T/C [34]: 99.2%
- viability, T/C [35]: 92.3%
- viability, T/C [36]: 83%

Compound: CC(Cn1ccc(-c2ccc(C#N)c(Cl)c2)n1)NC(=O)c1cc(C(C)O)[nH]n1 (stereo not drawn) + CC(Nc1ncnc2nc[nH]c12)c1cc2cccc(Cl)c2c(=O)n1-c1ccccc1
- pIC50 (second compound 0.0316 µM): < 5.00
- pIC50 (second compound 0.1 µM): < 5.00
- pIC50 (second compound 0.316 µM): < 5.00
- pIC50 (second compound 1 µM): < 5.00
- pIC50 (second compound 3.16 µM): < 5.00
- pIC50 (second compound 10 µM): < 5.00
- viability, T/C [1]: 98.2%
- viability, T/C [2]: 90.6%
- viability, T/C [3]: 96.1%
- viability, T/C [4]: 106%
- viability, T/C [5]: 99.2%
- viability, T/C [6]: 113%
- viability, T/C [7]: 92.1%
- viability, T/C [8]: 93.6%
- viability, T/C [9]: 114%
- viability, T/C [10]: 108%
- viability, T/C [11]: 98.5%
- viability, T/C [12]: 115%
- viability, T/C [13]: 111%
- viability, T/C [14]: 102%
- viability, T/C [15]: 84.7%
- viability, T/C [16]: 97.5%
- viability, T/C [17]: 107%
- viability, T/C [18]: 100%
- viability, T/C [19]: 105%
- viability, T/C [20]: 106%
- viability, T/C [21]: 95.2%
- viability, T/C [22]: 94.5%
- viability, T/C [23]: 80.5%
- viability, T/C [24]: 92.4%
- viability, T/C [25]: 112%
- viability, T/C [26]: 102%
- viability, T/C [27]: 85.5%
- viability, T/C [28]: 102%
- viability, T/C [29]: 110%
- viability, T/C [30]: 115%
- viability, T/C [31]: 103%
- viability, T/C [32]: 106%
- viability, T/C [33]: 110%
- viability, T/C [34]: 115%
- viability, T/C [35]: 106%
- viability, T/C [36]: 107%

Compound: CC1(C)CCC(Nc2ncc(C(F)(F)F)c(-c3c[nH]c4c(P(C)(C)=O)c(C#N)ccc34)n2)CN1 (stereo not drawn) + CC(Nc1ncnc2nc[nH]c12)c1cc2cccc(Cl)c2c(=O)n1-c1ccccc1
- pIC50 (second compound 0.0316 µM): 5.45
- pIC50 (second compound 0.1 µM): 5.37
- pIC50 (second compound 0.316 µM): 5.50
- pIC50 (second compound 1 µM): 5.43
- pIC50 (second compound 3.16 µM): 5.52
- pIC50 (second compound 10 µM): 5.53
- viability, T/C [1]: 81.1%
- viability, T/C [2]: 93.2%
- viability, T/C [3]: 102%
- viability, T/C [4]: 108%
- viability, T/C [5]: 54.9%
- viability, T/C [6]: 6.48%
- viability, T/C [7]: 94.1%
- viability, T/C [8]: 92.3%
- viability, T/C [9]: 96.3%
- viability, T/C [10]: 104%
- viability, T/C [11]: 65.7%
- viability, T/C [12]: 6.11%
- viability, T/C [13]: 91%
- viability, T/C [14]: 76.4%
- viability, T/C [15]: 90.8%
- viability, T/C [16]: 108%
- viability, T/C [17]: 49.7%
- viability, T/C [18]: 5.05%
- viability, T/C [19]: 108%
- viability, T/C [20]: 94.1%
- viability, T/C [21]: 100%
- viability, T/C [22]: 98.7%
- viability, T/C [23]: 57.6%
- viability, T/C [24]: 4.82%
- viability, T/C [25]: 91.2%
- viability, T/C [26]: 94.7%
- viability, T/C [27]: 100%
- viability, T/C [28]: 93.3%
- viability, T/C [29]: 47.8%
- viability, T/C [30]: 4.88%
- viability, T/C [31]: 100%
- viability, T/C [32]: 84.4%
- viability, T/C [33]: 92.3%
- viability, T/C [34]: 81.3%
- viability, T/C [35]: 48.1%
- viability, T/C [36]: 3.89%
